Earlier results on three molecules are cited in patent US10246411B2, “(Z)-3,4,5-trimethoxystyrylbenzenesulfonamides as potential anticancer agents” (COUNCIL OF SCIENTIFIC & INDUSTRIAL RESEARCH, priority 2014, dated 2019).

The test system of one series is tubulin. Particulars: background, literature; cited from earlier work.
Series [1] concerns VCR-resistant P388 cell lines. Particulars: two kinds of VCR-resistant P388 cell lines; background, literature; cited from earlier work.

Turning to `COc1cc(/C=C\c2ccc(OC)c(N)c2)cc(OC)c1` [(Z)-5-(3,5-dimethoxystyryl)-2-methoxyaniline], in the series on tubulin, the “inhibition of tubulin polymerization” value is “five times stronger than CA-4”.

`COc1ccc(/C=C\c2cc(OC)c(OC)c(OC)c2)cc1O` [CA-4, Combretastatin A-4]: the “inhibition of tubulin polymerization” value with tubulin is “potent inhibitor of tubulin polymerization”.

As to `COc1ccc(S(=O)(=O)Nc2cccnc2Nc2ccc(O)cc2)cc1` [E7010, N-[2-[(4-hydroxyphenyl)amino]-3-pyridinyl]-4-methoxybenzenesulfonamide], in the series on tubulin, the “inhibition of tubulin polymerization” value was “dose-dependent inhibition of tubulin polymerization”. Moreover, the “activity against VCR-resistant P388 cell lines” value in series [1] was “active”.
